Assay results taken from PubChem BioAssay (NCI).
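Assay format: 96-well plates, 48-hour exposure. TGI is the concentration that stops growth completely.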

Experiments:
Experiment in all cases: NCI-60 cell line screen, 48 h
[1] = system: 786-0 renal
[2] = system: A498 renal
[3] = system: BT-549 breast
[4] = system: CAKI-1 renal
[5] = system: CCRF-CEM leukemia
[6] = system: COLO 205 colon
[7] = system: DU-145 prostate
[8] = system: EKVX NSCLC
[9] = system: HCC-2998 colon
[10] = system: HCT-116 colon
[11] = system: HCT-15 colon
[12] = system: HL-60(TB) leukemia
[13] = system: HOP-62 NSCLC
[14] = system: HOP-92 NSCLC
[15] = system: HS 578T breast
[16] = system: HT29 colon
[17] = system: IGROV1 ovarian
[18] = system: K-562 leukemia
[19] = system: KM12 colon
[20] = system: LOX IMVI melanoma
[21] = system: MDA-MB-231 breast
[22] = system: MDA-MB-435
[23] = system: MDA-N
[24] = system: MOLT-4 leukemia
[25] = system: NCI-H226 lung
[26] = system: NCI-H23 lung
[27] = system: NCI/ADR-RES ovarian
[28] = system: OVCAR-3 ovarian
[29] = system: OVCAR-4 ovarian
[30] = system: OVCAR-8 ovarian
[31] = system: PC-3 prostate
[32] = system: RPMI-8226 leukemia
[33] = system: SF-268 CNS
[34] = system: SK-MEL-2 melanoma
[35] = system: SK-MEL-28 melanoma
[36] = system: SK-MEL-5 melanoma
[37] = system: SN12C renal
[38] = system: SNB-19 CNS
[39] = system: SNB-75 CNS
[40] = system: SW-620 colon
[41] = system: T-47D breast
[42] = system: U251 CNS
[43] = system: UACC-62 melanoma

Measured: TGI

COC(=O)[C@H](Cc1c[nH]c2ccccc12)NP(=O)(O)OCC1C=CC(n2cc(C)c(=O)[nH]c2=O)O1 (stereo partly drawn)
> 100 µM: all assays above
